We go through one molecule from patent US20260207604A1, “COMPOUND AND USE THEREOF” (ONQUALITY PHARMACEUTICALS CHINA LTD., priority 2022, published 2026).

Data set [1] is described as follows: Intestinal tissue distribution study following a single oral administration in rats. It is filed as in vivo, Sprague Dawley rats. The settings on record: male rats, single oral 25 mg/kg; for Kp: read-out: Tissue-to-plasma concentration ratio. On the procedure: Nine male Sprague Dawley rats were orally administered Compound 1 at a dose of 25 mg/kg with a dosing volume of 10 mL/kg using purified water as the vehicle. At 0.25, 2, and 6 hours post-dosing, three animals were euthanized at each time point. A 200 μL whole blood sample was collected via cardiac puncture and plasma was separated by centrifugation.
The duodenum, jejunum, ileum, and colon were collected, contents removed, rinsed with ice-cold water, and surface moisture was blotted with filter paper before weighing. For each gram of tissue, 5 mL of methanol-water (1:3, v/v) was added for homogenization. The drug concentrations in plasma and intestinal tissue homogenates of each intestinal segment tissue were measured using LC-MS/MS.

Data set [2] is described as follows: Single-dose intravenous and oral pharmacokinetic study in mice. It is filed as in vivo, Balb/c mice. On the procedure: Twenty-seven male Balb/c mice were randomly divided into 3 groups, 9 mice in each group. Group 1: mice received an intravenous (IV) dose of Compound 1 at 5 mg/kg with a dosing volume of 5 mL/kg. Blood samples were collected at 0.083, 0.25, 0.5, 1, 2, 4, 6, 8, and 24 hours post-dose using a staggered sampling method. Group 2: mice received an oral (gavage) dose of Compound 1 at 50 mg/kg with a dosing volume of 10 mL/kg. Blood samples were collected at 0.25, 0.5, 1, 2, 4, 6, 8, and 24 hours post-dose using a staggered sampling method. Group 3: mice received an oral (gavage) dose of palbociclib at 50 mg/kg with a dosing volume of 10 mL/kg. Blood samples were collected at 1, 3, 4, 6, 8, 10, 12, and 24 hours post-dose using a staggered sampling method. For each group, 3 samples were collected at each time point. Plasma was separated by centrifugation and stored at −70° C. The concentrations of Compound 1 or palbociclib in plasma were measured using LC-MS/MS.

Where [3] appears, read: mouse, male Balb/c mice, IV 5 mg/kg, plasma.
Setting [4] is: mouse, male Balb/c mice, PO 50 mg/kg, plasma.

Like-named read-outs stand apart in the source and are kept apart here.

`CC(=O)c1c(C)c2c(n(C3CCCC3)c1=O)=NC(Nc1ccc(N3CCN(S(=O)(=O)NCCN)CC3)cn1)NC=2` (stereo not drawn) [Compound 1]: the Kp in data set [1] (Sprague Dawley, rat, Colon, ratio of AUC values) turned out to be 502; in data set [1] (Sprague Dawley, rat, Ileum, ratio of AUC values), 4750; in data set [1] (Sprague Dawley, rat, Jejunum, ratio of AUC values) it was 4300. The AUC(0-t) was 1.26 ng·h/mL in data set [1] (Sprague Dawley, rat, Plasma, read-out: AUC0-t); 632 ng·h/g in data set [1] (Colon); 19300 ng·h/g in data set [1] (Duodenum); 5980 ng·h/g in data set [1] (Ileum); 5420 ng·h/g in data set [1] (Jejunum); 670 ng·h/mL in data set [2] (setting [3]). Besides, the AUC(0-t) in data set [2] (setting [4]) is 39.2 ng·h/mL. In data set [1] (Duodenum, ratio of AUC values), the Tissue-to-plasma concentration ratio was 15300. The molecule also yielded a F in data set [2] (male Balb/c mice, PO 50 mg/kg vs IV 5 mg/kg) of 0.6%. In addition, the “plasma concentration following oral administration compared with palbociclib” value in data set [2] (mice, PO 50 mg/kg, in words) is “significantly lower than that of palbociclib”. This molecule also gave a clearance in data set [2] (setting [3]) of 119 mL/min/kg. In addition, the half-life (usually how long it takes for the measured level to halve) in data set [2] (setting [3]) was 2.69 h. Also, in data set [2] (mouse, male Balb/c mice, IV 5 mg/kg, plasma, read-out: Vdss), the Vd was found to be 11 L/kg. The Cmax (commonly the peak of the concentration-time curve) in data set [2] (setting [4]) amounted to 21 ng/mL. Besides, the time of peak concentration (Tmax) – broadly, the time from dosing to the highest level – in data set [2] (setting [4]) amounted to 1 h.
